Results reported in US20150038545A1, “HYDROXYPHENYL PYRROLE COMPOUNDS CONTAINING AN HYDROXAMIC ACID AS HDAC INHIBITORS AND MEDICINAL APPLICATIONS THEREOF” (UNIVERSIDAD DEL PAÍS VASCO, priority 2011, published 2015).
Blank lines part the entries; values can stand above or below the compound they belong to.

Biological target: T1, Human HDAC6 (Homo sapiens, UniProt Q9UBN7)
T1 construct: Full length with N-terminal GST tag, MW=159 kDa; GST (N); purchased BioMol SE-508; host or cells: Sf9 cells, baculovirus
T1 sequence (Q9UBN7 1-1215): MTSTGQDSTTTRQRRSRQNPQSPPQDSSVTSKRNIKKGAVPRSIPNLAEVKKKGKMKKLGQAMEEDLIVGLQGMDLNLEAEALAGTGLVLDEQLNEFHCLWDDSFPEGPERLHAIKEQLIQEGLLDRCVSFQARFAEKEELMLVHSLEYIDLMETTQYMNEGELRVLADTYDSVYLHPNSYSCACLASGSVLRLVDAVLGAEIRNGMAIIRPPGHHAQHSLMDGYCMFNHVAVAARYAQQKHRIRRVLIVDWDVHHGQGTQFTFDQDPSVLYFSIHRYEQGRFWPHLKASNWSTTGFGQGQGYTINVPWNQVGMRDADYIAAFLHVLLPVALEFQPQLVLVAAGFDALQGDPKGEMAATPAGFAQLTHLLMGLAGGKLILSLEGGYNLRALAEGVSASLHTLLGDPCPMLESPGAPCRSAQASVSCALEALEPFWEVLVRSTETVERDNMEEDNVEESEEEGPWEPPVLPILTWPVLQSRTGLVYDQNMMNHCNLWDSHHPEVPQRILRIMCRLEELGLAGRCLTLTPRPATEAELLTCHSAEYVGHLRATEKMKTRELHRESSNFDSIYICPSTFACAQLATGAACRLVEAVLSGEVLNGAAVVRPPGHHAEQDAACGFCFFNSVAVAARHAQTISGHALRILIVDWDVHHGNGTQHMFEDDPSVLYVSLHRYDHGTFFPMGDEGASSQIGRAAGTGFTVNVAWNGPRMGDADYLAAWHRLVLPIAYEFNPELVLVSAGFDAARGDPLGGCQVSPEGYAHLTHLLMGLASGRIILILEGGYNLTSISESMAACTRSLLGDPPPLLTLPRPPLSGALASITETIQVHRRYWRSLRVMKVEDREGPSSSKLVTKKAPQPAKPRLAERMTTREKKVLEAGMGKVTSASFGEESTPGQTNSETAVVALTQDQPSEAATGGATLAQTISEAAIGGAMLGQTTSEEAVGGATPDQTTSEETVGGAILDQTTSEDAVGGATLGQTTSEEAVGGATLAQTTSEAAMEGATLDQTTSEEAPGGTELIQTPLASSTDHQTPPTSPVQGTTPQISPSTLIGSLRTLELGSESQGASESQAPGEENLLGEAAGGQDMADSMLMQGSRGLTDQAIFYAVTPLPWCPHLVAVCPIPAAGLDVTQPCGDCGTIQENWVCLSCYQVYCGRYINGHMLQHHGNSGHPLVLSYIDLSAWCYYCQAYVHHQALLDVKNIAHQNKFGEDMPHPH
Assay: In vitro HDAC6 inhibition, fluorogenic peptide assay
Format: biochemical
Conditions: read-out: IC50 (nM) of enzyme activity HDAC6
Protocol: All HDAC assays were performed using acetylated AMC-labeled peptide substrate: • Substrate for isoforms HDAC1, 2, 3, 4, 5, 6, 7, 9, 10, 11 and HeLa nuclear extract assays: Acetylated fluorogenic peptide from p53 residues 379-382 (RHKKAc) (BioMol. Cat. # KI-104). • Substrate for HDAC8 assays: Acetylated fluorogenic peptide from p53 residues 379-382 (RHKAcKAc) (BioMol. Cat. # KI-178).
Enzymes: • HDAC1 assay: 75 nM Human HDAC1 (GenBank Accession No. NM_004964): Full length with C-terminal GST tag, MW=79.9 kDa, expressed by baculovirus expression system in Sf9 cells (BioMol. Cat. # SE-456). • HDAC2 assay: 5 nM Human HDAC2 (GenBank Accession No. Q92769): Full length with C-terminal His tag, MW=60 kDa, expressed by baculovirus expression system in Sf9 cells (BioMol. Cat. # SE-500). • HDAC3 assay: 2.3 nM Human HDAC3/NcoR2 (GenBank Accession No. NM_003883 for HDAC3, GenBank Accession No.NM_006312 for NcoR2): Complex of human HDAC3, full length with C-terminal His tag, MW=49.7 kDa, and human NCOR2, N-terminal GST tag, MW=39 kDa, co-expressed in baculovirus expression system (BioMol. Cat. # SE-507). • HDAC4 assay: 266 nM Human HDAC4 (GenBank Accession No. NM_006037): Amino acids 627-1085 with N-terminal GST tag, MW=75.2 kDa, expressed in baculovirus expression system (BioMol, Hamburg, Germany). • HDAC5 assay: 588 nM Human HDAC5 (GenBank Accession No. NM_001015053): Full length with Nterminal GST tag, MW=150 kDa, expressed by baculovirus expression system in Sf9 cells (BioMol, Hamburg, Germany). • HDAC6 assay: 13 nM Human HDAC6 (GenBank Accession No. BC069243): Full length with N-terminal GST tag, MW=159 kDa, expressed by baculovirus expression system in Sf9 cells (BioMol. Cat. # SE-508). • HDAC7 assay: 962 nM Human HDAC7 (GenBank Accession No. AY302468): Amino acids 518-end with N-terminal GST tag, MW=78 kDa, expressed in baculovirus expression system (BioMol, Hamburg, Germany). • HDAC8 assay: 119 nM Human HDAC8 (GenBank Accession No. NM018486): Full length, MW=42 kDa, expressed in an E. coli expression system (BioMol. Cat. # SE-145). • HDAC9 assay: 986 nM Human HDAC9 (GenBank Accession No. NM178423): Amino acids 604-1066 with C-terminal His tag, MW=50.7 kDa, expressed in baculovirus expression system (BioMol, Hamburg, Germany). • HDAC10 assay: 781 nM Human HDAC10 (GenBank Accession No. NM_032019): Amino acids 1-631 with Nterminal GST tag, MW=96 kDa, expressed by baculovirus expression system in Sf9 cells (BioMol. Cat. # SE-559). • HDAC11 assay: 781 nM Human HDAC11 (GenBank Accession No. NM_BC009676) with N-terminal GST tag, MW=66 kDa, expressed in baculovirus expression system (BioMol. Cat. # SE-560). • HeLaNuclear Extract assay: 25 ng/μl Nuclear Extract from HeLa Cells: Prepared by high salt extraction of HeLa nuclei (human cervical cancer cell line), this extract is a rich source of HDAC activity (BioMol. Cat. # KI-140).
The reactions were carried out in a 96-well microplate for fluorometry in a 50 μl reaction volume. After the deacetylation reaction, Fluor-de-Lys-Developer (BioMol Cat. # KI-105) was added to each well to digest the deacetylated substrate, thus producing the fluorescent signal. The reaction was allowed to develop for 45 minutes at 30° C. with 5% CO2; then the fluorescent signal was measured with an excitation wavelength at 360 nm and an emission wavelength at 460 nm in a microplate-reading fluorometer (GeminiXS; Molecular Devices, Sunnyvale, Calif.). […] All experiments were performed in triplicate. IC50 was calculated by fitting the experimental data to a dose-response curve. DMSO was used as negative control; Trichostatin A (Biomol Cat. # GR-309) was used as positive control inhibitor.

Compound: O=C(CCCCCNC(=O)c1[nH]c(-c2ccoc2)cc1-c1ccc(O)cc1)NO [Example 4, 5-(3-furyl)-N-(5-(Hydroxycarbamoyl)pentyl)-3-(4-hydroxy-phenyl)-1H-pyrrole-2-carboxamide]
IC50: 9.3 nM

Compound: COc1ccc(-c2cc(-c3ccccc3)[nH]c2C(=O)NCCCCCC(=O)NO)cc1 [Compound A, N-[6-(hydroxyamino)-6-oxohexyl]-3-(4-methoxyphenyl)-5-phenyl-1H-pyrrole-2-carboxamide, reference compound]
IC50: 20 nM

Compound: O=C(CCCCCNC(=O)c1[nH]c(-c2ccsc2)cc1-c1ccc(O)cc1)NO [Example 3, N-(5-(hydroxycarbamoyl)pentyl)-3-(4-hydroxyphenyl)-5-(3-thienyl)-1H-pyrrole-2-carboxamide]
IC50: 12 nM

Compound: O=C(CCCCCNC(=O)c1[nH]c(-c2ccccc2)cc1-c1ccc(O)cc1)NO [Example 1, N-(6-(hydroxyamino)-6-oxohexyl)-3-(4-hydroxyphenyl)-5-phenyl-1H-pyrrole-2-carboxamide]
IC50: 14 nM

Compound: COc1ccc(-c2cc(-c3ccccc3)c(C(=O)NCCCCCC(=O)NO)[nH]2)cc1 [Compound B, N-[6-(hydroxyamino)-6-oxohexyl]-5-(4-methoxyphenyl)-3-phenyl-1H-pyrrole-2-carboxamide, reference compound]
IC50: 32 nM

Compounds with a lower IC50, results first:

IC50: 7.6 nM
Compound: O=C(CCCCCNC(=O)c1[nH]c(-c2ccc(O)cc2)cc1-c1ccccc1)NO [Example 2, N-(6-(hydroxyamino)-6-oxohexyl)-5-(4-hydroxyphenyl)-3-phenyl-1H-pyrrole-2-carboxamide]

IC50: 1.6 nM
Compound: O=C(CCCCCNC(=O)c1[nH]c(-c2ccc(O)cc2)cc1-c1ccsc1)NO [Example 6, N-(5-(hydroxycarbamoyl)pentyl)-5-(4-hydroxyphenyl)-3-(3-thienyl)-1H-pyrrole-2-carboxamide]

IC50: 0.6 nM
Compound: O=C(CCCCCNC(=O)c1[nH]c(-c2ccc(O)cc2)cc1-c1ccoc1)NO [Example 5, 3-(3-furyl)-N-(5-(hydroxycarbamoyl)pentyl)-5-(4-hydroxy-phenyl)-1H-pyrrole-2-carboxamide]
